Measurements as given in patent publication US12503432B2, “Ionizable lipids for nucleic acid delivery” (Global Life Sciences Solutions Canada ULC, priority 2019, dated 2025).

Columns and labels:
[1] = LNP characterization: size and PDI by dynamic light scattering, mRNA encapsulation efficiency by RiboGreen assay; assay type: physicochemical
Protocol: Particle sizes and “polydispersity index” (PDI) of the lipid particle were measured by dynamic light scattering (DLS). PDI indicates the width of the particle distribution. This is a parameter calculated from a cumulative analysis of the (DLS)-measured intensity autocorrelation function assuming a single particle size mode and a single exponential fit to the autocorrelation function. […] The particles produced by mechanical micromixers such as the NanoAssemblr® Spark™ and NanoAssemblr® Benchtop (Precision NanoSystems Inc.) are substantially homogeneous in size assuming all other variables are neutral. A lower PDI indicates a more homogenous population of lipid particles. The Spark™ instrument is used in a screening setting to identify the lead compositions. Once the composition is selected, the lipid particle can be fine-tuned using the NanoAssemblr® Benchtop. Once the process parameters Flow Rate Ratio and Total Flow Rate is identified for the specific nanoparticle composition, the nanoparticle technology can be scaled up using the same process parameter values.
Lipid particles were also manufactured by a larger microfluidic mixer instrument, the NanoAssemblr® Ignite™ for testing. Briefly, 350 μL of mRNA was diluted using 100 mM sodium acetate buffer to the required concentration of 0.2 to 0.3 mg/mL. Lipid particle samples were then prepared by running both fluids, namely, nucleic acids in aqueous solvent and Lipid Mix in ethanol at a flow ratio of 3:1 and at a total flow rate of 12 ml/min in the microfluidic mixer. Following mixing in the microfluidic device, the post cartridge lipid nucleic acid particle sample was diluted into RNAse free tubes containing three to 40 volumes of phosphate buffered saline (PBS), pH 7.4. Ethanol was finally removed through dialysis in PBS, pH 7, or using Amicon™ centrifugal filters (Millipore, USA) at 3000 RPM, or using TFF systems. Once the required concentration was achieved, the lipid nucleic acid particles were filter sterilized using 0.2 μm filters in aseptic conditions. Final encapsulation efficiency was measured by the Ribogreen™ assay. Quant-iT™ RiboGreen® RNA Reagent and Kit (Invitrogen) following manufacturer directions.
Messenger RNA or plasmid nucleic acid therapeutic (NAT) as described below, was diluted using sodium acetate buffer to the required concentration. Lipid nucleic acid particle (LNAP) samples were then prepared by running both fluids using the NanoAssemblr® Spark instrument. Briefly, […] of nucleic acids in 100 mM sodium acetate buffer in a total volume of 32 μL was mixed with 16 μL of 37.5 mM lipid mix solution as required by the N/P ratios (4, 6, or 10 in illustrated examples). The microfluidically mixed lipid nucleic acid particles (LNAP) made in the instrument were immediately diluted down with 48 μL Ca++ and Mg++ free 1× PBS at pH 7.4 in the aqueous output well. These LNAP were immediately collected into microcentrifuge tubes containing 96 μL of the same buffer at pH 7.4. Encapsulation efficiency was measured by a modified Ribogreen™ assay (Quanti-iT RiboGreen™ RNA assay kit, Fisher). This information was used to establish the desired dosage.
After the lipid particles were made as described in Example 17, particle size (hydrodynamic diameter of the particles) was determined by Dynamic Light Scattering (DLS) using a ZetaSizer™ Nano ZS™ (Malvern Instruments, UK). He/Ne laser of 633 nm wavelength was used as the light source. Data were measured from the scattered intensity data conducted in backscattering detection mode (measurement angle=173). Measurements were an average of 10 runs of two cycles each per sample. Z-Average size was reported as the particle size, and is defined as the harmonic intensity averaged particle diameter. These LNP characteristics, as well as the results of the mRNA encapsulation efficiency for various Lipid Mixes are also described in the application are shown in Tables 4, 5 and 6. […]

C57BL/6 mice = test: In vivo delivery of EPO-encoded mRNA LNP via intravenous route, serum EPO ELISA; parameters: key to EPO Protein expression: IV in mice: *: The number of asterix symbols indicates protein expression levels interpreted by the inventors from quantitative data; **: The number of asterix symbols indicates protein expression levels interpreted by the inventors from quantitative data; ***: The number of asterix symbols indicates protein expression levels interpreted by the inventors from quantitative data; ****: The number of asterix symbols indicates protein expression levels interpreted by the inventors from quantitative data; *****: The number of asterix symbols indicates protein expression levels interpreted by the inventors from quantitative data; *******: The number of asterix symbols indicates protein expression levels interpreted by the inventors from quantitative data; conditions: for EPO Protein expression: IV in mice: qualitative grade interpreted from quantitative data
Text: Lipid Nanoparticles with the composition IL/DSPC/Cholesterol/PEG-DMG2000 (LM 02—see Table 3) were used to encapsulate recombinant human erythropoietin (EPO) encoded mRNA with 5-moU modifications [TriLink CleanCapo 5-moU EPO mRNA L7201]. To create the LNP, lipid mix in ethanol was microfluidically mixed with a low PH buffered solution of 5-moU EPO mRNA mixer at an N/P ratio of 6 using a NanoAssemblr® Ignite™ microfluidic mixer. The microfluidically mixed particles were downstream processed using Amicon® ultra 15 10 kDa MWCO units (EMD Millipore) filtration technique. The RNA loaded lipid particles were then characterized for size, PDI and Encapsulation Efficiency (EE). Size and PDI were measured using dynamic light scattering techniques described above, and nucleic acid encapsulation efficiency was calculated using a Quant-iT RiboGreen RNA assay as described supra, modified to use hEPO mNA as the standard instead if the standard RNA in the kit. The hydrodynamic diameter of these mRNA-LNPs was ˜70 nm with a PDI in the range of 0.02 to 0.1 and an encapsulation efficiency of ˜97.8%.
Animals were handled according to the Institutional Animal Care and Use Committee ethics protocols. For experiments, 6-8 week old C57BL/6 mice were purchased from Envigo (South Kent, WA, USA). For in vivo activity, female C57BL/6 mice were treated intravenously with EPO mRNA LNPs at specified dosages of 0.5-3 mg/Kg. Samples of 50-75 μL of blood were collected 6 h post administration via saphenous vein, and at regular time intervals of 24 h or 48 h.
After harvest, blood was immediately prepared to produce serum samples using standard techniques, and stored at −80 degrees C. Briefly, after collection, the blood was allowed to clot at room temperature for 15-30 minutes. The clot was removed by centrifuging the tubes at 1000-2000×g for 10 min at 4 degrees Celsius. The clear golden-yellow color supernatant was carefully removed and transferred to sterile screw-capped clear polypropylene tubes on ice. The serum was then stored, if necessary, at −80° C. until analysis.
Samples were thawed, then analyzed at appropriate dilutions for EPO protein expression and for cytokine/chemokine levels. The total serum EPO levels were evaluated using Quantikine® IVD EPO ELISA kit (Bio-Techne, Minneapolis, MN, USA).
Following i.v administration of a 0.5 mg/Kg dose of recombinant human EPO-encoded mRNA LNPs containing ionizable lipid MC3, PNI 121 or PNI 123 using the LM02 composition at N/P 6, EPO expression levels at 6 h (upper, FIG. 6) and at 24 h (lower, FIG. 6) in C56BL/6 mice were examined; hEPO protein was measured using Quantikine® IVD® ELISA Human Erythropoietin Immunoassay protocol.

[2] = 5-moU EPO encoded LNPs, IL:DSPC:cholesterol:DMG-PEG (50:10:38.5:1.5), N/P 6
[3] = Table 4 LNPs, payload and lipid mix not stated
[4] = OVA encoded LNPs, payload WT OVA, LM02, N/P 8
[5] = OVA encoded LNPs, payload 5-moU OVA, LM02, N/P 8

Diameter (Z. ave, nm) [1, 2]	Encapsulation Efficiency (%) [1, 2]	Polydispersity Index (PDI) [1, 2]	Diameter (Z. ave, nm) [1, 3]	Encapsulation Efficiency (%) [1, 3]	Polydispersity Index (PDI) [1, 3]	Diameter (Z. ave, nm) [1, 4]	Encapsulation Efficiency (%) [1, 4]	Polydispersity Index (PDI) [1, 4]	Diameter (Z. ave, nm) [1, 5]	Encapsulation Efficiency (%) [1, 5]	Polydispersity Index (PDI) [1, 5]	SMILES	EPO Protein expression: IV in mice (C57BL/6 mice)	serum rhEPO expression level (C57BL/6 mice; i.v., 0.5 mg/Kg, FIG. 8)
59.0 nm	98.6%	0.04	63.9 nm	98.4%	0.07							CCCCCCCCC1CC1CCCCCCCCOCC(COC(=O)CC1CCC(OC(=O)CCCN(C)C)C1CC1CC1CC)OCCCCCCCCC1CC1CCCCCCCC (stereo not drawn) [PNI 545]	***	
60.8 nm	97.9%	0.03	69.9 nm	97.4%	0.03							CC/C=C\CC1C(CC(=O)OCCC(CCCCCCCC)OC(=O)C(CCCCCC)CCCCCCCC)CCC1OC(=O)C1(C)CCN(C)CC1 (stereo not drawn) [PNI 565]	***	
63.1 nm	98.7%	0.06	60.5 nm	98.4%	0.06	76.7 nm	97.7%	0.05				CC/C=C\CC1C(CC(=O)OC(CCCCCCCCC2CC2CCCCCCCC)CCCCCCCCC2CC2CCCCCCCC)CCC1OC(=O)C1(C)CCN(C)CC1 (stereo not drawn) [PNI 560]	****	
55.4 nm	97.5%	0.09	55.1 nm	96.6%	0.06							CC/C=C\CC1C(CC(=O)OCCC(CCCCCCCC)OC(=O)C(CCCCCC)CCCCCCCC)CCC1OC(=O)CCN(C)C (stereo not drawn) [PNI 554]	***	
68.5 nm	98.7%	0.02	79.4 nm	98.8%	0.04	74.6 nm	98.7%	0.01				CC/C=C\CC1C(CC(=O)OCC(COCCCCCCCC/C=C\C/C=C\CCCCC)OCCCCCCCC/C=C\C/C=C\CCCCC)CCC1OC(=O)CCCN(CC)CC (stereo not drawn) [PNI 542]	***	
69.0 nm	98.7%	0.02	68.5 nm	98.7%	0.12	75.9 nm	98.6%	0.02	76.5 nm	98.2%	0.04	CC/C=C\CC1C(CC(=O)OC(CCCCCCCCC2CC2CCCCCCCC)CCCCCCCCC2CC2CCCCCCCC)CCC1OC(=O)CCCN(C)C (stereo not drawn) [PNI 516]	****	on par with MC3
56.9 nm	96.3%	0.09	64.0 nm	96.3%	0.03							CCCCCCCCC1CC1CCCCCCCCOCC(COC(=O)CC1CCC(OC(=O)CCN(C)C)C1CC1CC1CC)OCCCCCCCCC1CC1CCCCCCCC (stereo not drawn) [PNI 546]	*	
62.3 nm	97.6%	0.05	51.3 nm	97.9%	0.04							CC/C=C\CC1C(CC(=O)OCC(COCCCCCCCCC2CC2CCCCCCCC)OCCCCCCCCC2CC2CCCCCCCC)CCC1OC(=O)CCN(C)C (stereo not drawn) [PNI 544]	***	
70.3 nm	98.2%	0.04	74.5 nm	98.2%	0.06	82.6 nm	97.1%	0.07				CC/C=C\CC1C(CC(=O)OCC(COCCCCCCCC/C=C\C/C=C\CCCCC)OCCCCCCCC/C=C\C/C=C\CCCCC)CCC1OC(=O)C1CCN(C)CC1 (stereo not drawn) [PNI 132]	***	
71.8 nm	98.9%	0.08	95.4 nm	98.7%	0.02							CC/C=C\CC1C(CC(=O)OCC(COCCCCCCCC/C=C\C/C=C\CCCCC)OCCCCCCCC/C=C\C/C=C\CCCCC)CCC1OC(=O)CC1CCN(C)C1 (stereo not drawn) [PNI 557]	**	
62.5 nm	97.4%	0.06	71.2 nm	96.4%	0.05							CC/C=C\CC1C(CC(=O)OC(CCCCCCCCC2CC2CCCCCCCC)CCCCCCCCC2CC2CCCCCCCC)CCC1OC(=O)CCN(C)C (stereo not drawn) [PNI 549]	***	
